Data as given in patent US20140286906A1, “USE OF IGF-1 IN THE MODULATION OF TREG CELL ACTIVITY AND THE TREATMENT AND PREVENTION OF AUTOIMMUNE DISORDERS OR DISEASES” (priority 2011, published 2014).

Columns and labels:
CD4+CD25+ splenic cells = test: flow cytometry of activation and homing markers on CD4+CD25+ splenic cells; type: cell-based, murine; conditions: after IGF-1 treatment in vitro
From the text: The expression of certain markers on the surface of the cell is correlated with the degree of activation of the cells and also controls their trafficking and localization and consequently the compartmentalization of the immune responses. This is again measured using flow cytometric methods. For example, cells expressing high levels of CD62L preferentially migrate to secondary lymphoid tissues. However, as these cells enter the periphery (for example when they travel to affected tissues during an autoimmune process) they rapidly acquire an activated phenotype and express higher levels of CD44. Thus upregulation of CD44 is associated with a higher proliferation rate. […] The importance of this observation comes from the fact that in order to exert their suppressive properties, Tregs need to migrate to the affected tissues first. Therefore, IGF-1 not only induces activation of proliferation but also promotes their correct localization.
Finally, the inventors analyzed the ability of IGF-1 to alter the homing properties of the regulatory T cell subset. In 2003, Fisson et al. defined two distinct population of regulatory T cells in homeostatic conditions. In the steady state, some Tregs remain quiescent for long periods of time, whereas the other Treg population divides extensively and express multiple activation markers. […] This pattern of change is also consistent with a more activated phenotype. On one hand, CD44^hiCD62L^lo Treg populations, but not their CD44^loCD62L^hi counterparts, constantly incorporate BrdU, a synthetic analog of thymidine, into newly synthesized DNA in lymphoid tissues (Matsushima and Takashima, 2010). On the other hand, higher levels of CD62L have been associated with a higher capacity of Tregs to migrate to the lymph nodes, while lower levels allows them to migrate to sites of inflammation (Fisson et al., 2003; Bromley et al., 2008). Thus, T regulatory cells expressing lower levels of CD62L would have a higher inflammation-seeking capacity, which has been associated with higher suppressive potential in various inflammation models (Huehn et al., 2005). […] One, IGF-1 is able to activate a complex pathway resulting in Treg activation leading to proliferation and to selective homing and migration to the sites of inflammation. The second conclusion comes from the observation that sequential migration from blood to the target tissue and then to draining lymph nodes is required for nTreg to differentiate and execute fully their suppressive function, by inhibiting dendritic cells in the peripheral tissue and T effector cell responses in dLN and periphery (Zhang et al., 2009). Thus, IGF-1 treatment not only results in higher numbers of T regulatory cells but also in altering the trafficking of these cells to achieve a higher suppressive effect. […]

[1] = system: proinflamatory subsets Th1 (IFN-gamma+) and Th17 (IL-17+); test: flow cytometry of polarized Th1 and Th17 subsets; type: cell-based; conditions: 2 day polarization, 3 day incubation with recombinant IGF-1
Protocol: (§1) To determine the effect of IGF-1 in the regulatory subset in vitro (cf. FIG. 4) the number of FOXP3 positive cells is determined by flow cytometric analysis. To analyze other subsets, like the proinflammatory Th1 and Th17 subsets, a similar approach is used but the number of interferon-gamma (Th1) and IL-17 (Th17) positive cells is determined. Additionally, to evaluate the number of proliferating cells at a given moment cells are stained using the intracellular marker Ki67, which is expressed only in cycling cells. The combination of a specific lineage marker (e.g., Foxp3, IFN-g, IL-17) with Ki67 allows for the determination at a given moment of the cells belonging to a certain subset and their proliferative status.
An important aspect regarding the immunomodulatory properties of IGF-1 is the specificity of the effect for a certain cellular subset, in this case Tregs. If IGF-1 was a general anabolic factor affecting equally all subsets, it would no affect the balance of pro-inflammatory/anti-inflammatory players. In order to test the hypothesis that IGF-1 induces immune tolerance by specifically affecting the suppressive function, CD4 positive […] cells were polarized for two days into the IFN-gamma secreting Th1 subset and the IL-17 secreting Th17 subset and then incubated with IGF-1.

EAE = conditions: i.v. 600 μg/day for six days (Liu et al. 1997); cited from earlier work
[2] = system: FOXP3 positive cells (CD25+ splenic cells); test: Foxp3 and Ki67 flow cytometric analysis of Treg proliferation; type: cell-based, murine
Protocol: as §1
In animal experiments, the population is isolated normally from murine spleen (but also could be isolated from other tissues, like for example but not restricted to bone marrow, adipose tissue, cord blood derived mononuclear cell, thymus, or peripheral blood) and is sorted using different markers (e.g., CD4 and CD25). This population is defined as CD4+CD25+ and includes the regulatory cells. This population is then treated in the above-mentioned medium in the presence of IGF-1. After several days of culture part of the cells are counted, fixed, permeabilized and analyzed by flow cytometry using an anti-FOXP3 antibody in combination with the same extracellular markers (CD4 and CD25). This allows for the determination of the absolute number of FOXP3 positive cells present in the culture.
To further define the proliferative effects of IGF-1, FACS-sorted CD25+ splenic cells (>98% purity) after two days in culture with recombinant IGF-1 were fixed, permeabilized and stained with antibodies against FOXP3 and Ki67. Foxp3 is a transcription factor that orchestrates the cellular and molecular programs involved in T regulatory function. Ki67 is a nuclear antigen present in proliferating cells. […] After three days of culture the number of FOXP3 positive cells was increased four-fold and the number of regulatory T cells proliferating approximately six-fold.

CD4+CD25+ cells = test: Annexin V / living dye apoptosis flow cytometry, CD4+CD25+ cells; type: cell-based, murine
From the text: The effects of IGF-1 on apoptosis can be measured by flow cytometry. By using a combination of a living dye and Annexin V staining it is possible to determine four different cell populations which correspond to non-apoptotic, necrotic, early and late apoptosis.
Initially, and in order to characterize the in vitro effects of IGF-1 on the different populations of the […] immune system, murine splenic CD4 positive cells were sorted by FACS based on the expression of CD25. This allows for the separation and enrichment of conventional T cells (CD25 negative) and regulatory T cells (CD25 positive). […] To exclude the possibility that the observed expansion was due to the anti-apoptotic properties of IGF-1, the cells in culture were stained with AnnexinV (a marker of apoptosis) and a vital dye, and then analyzed by flow cytometry.

[3] = dose response curve, 2 days stimulation

For Insulin-like growth factor-1 [IGF-1], the CD44 surface expression (CD4+CD25+ splenic cells) was “upregulated”, the CD62L surface expression (CD4+CD25+ splenic cells) was “down” and the CD71 surface expression (CD4+CD25+ splenic cells) was “upregulated”. For the same substance, the “cells expressing IFN-gamma (Th1)” value [1] was “no effect”, the “cells expressing IL-17 (Th17)” value [1] was “no effect” and the “number of infiltrating T cells and macrophages” value (EAE) was “reduction”. For the same substance, the “dose range at which FOXP3 positive cells respond” value [2, 3] was “falls within physiological ranges”, the “saturability of stimulated pathway/receptor” value [2, 3] was “saturable” and the “increase in number of FOXP3 positive cells” value ([2]; three days of culture) was “four-fold”. For the same substance, the “increase in number of regulatory T cells proliferating” value ([2]; three days of culture) was “approximately six-fold”, the “double positive FOXP3 Ki67 population” value ([2]; two days in culture) was “increase” and the “number of FOXP3 positive cells” value ([2]; two days in culture) was “increase”. The “distribution of Annexin V and living dye stained populations” value (CD4+CD25+ cells) was “No difference”.
